Columns and labels:
[1] = system: Leucine-rich repeat-containing protein 42 (LRRC42); assay: TMT MS proteomics in HeLa cells, LRRC42 abundance; assay type: cell-based, Homo sapiens; settings: 1 µM, 10 h, two replicates
Experimental: MS proteomics. Sample preparation. HeLa cells were seeded at 5 × 10^6 on a 10 cm plate 16 h before treatment. […] Cells were incubated at 37 °C and 5% CO2 for 10 h before harvesting. Cells were placed on ice and medium was removed and cells were washed twice with cold PBS. Cells were lysed in 0.5 ml of 100 mM Tris pH 8.0, 4% (w/v) SDS supplemented with protease inhibitor cocktail (Roche). The lysate was pulse sonicated briefly and then centrifuged at 17,000 × g for 15 min at 4 °C. The supernatant fraction of cell extract was snap-frozen in liquid nitrogen and stored in −80 °C freezer. Further sample processing, digestion, desalting, labeling and fractionation were performed as previously described.
nLC-MS/MS analysis. The TMT 10plex fractions were first analyzed as previously described. Briefly, the TMT 10plex fractions were analyzed sequentially on a Q Exactive HF Hybrid Quadrupole-Orbitrap Mass Spectrometer (Thermo Scientific) coupled to an UltiMate 3000 RSLCnano UHPLC system (Thermo Scientific) and EasySpray column (75 μm × 50 cm, PepMap RSLC C18 column, 2 μm, 100 Å, Thermo Scientific). The MS2 isolation window was set to 0.4 Da and the resolution set at 120,000. MS2 resolution was set at 60,000. The AGC targets for MS1 and MS2 were set at 3e^6 ions and 1e5 ions, respectively. The normalized collision energy was set at 32%. […] After the first analysis, the TMT labeled fractions were re-analyzed on the Q-Exactive HF using the same instrument settings and a target list generated from a theoretical trypsin digest of VHL. […] After the second analysis, two fractions were further analyzed using a targeted SIM/ddMS2 method on the Q-Exactive HF. […]
Peptide and protein identification. All the raw MS data files from the three analyses were merged and searched against the Uniprot-sprot-Trembl-Human-Canonical database by Maxquant software 1.5.3.30 for protein identification and TMT reporter ion quantitation. […] Quantified proteins were filtered if the absolute fold-change difference between the two DMSO replicates was ≥ 1.5.

[2] = molecular target: T1, VCB (Homo sapiens, UniProt P40337); assay: AlphaLISA proximity assay of ternary complex formation; assay type: binding; settings: biotinylated VCB 20 nM, His6-VCB 20 nM, compound 0.5–200 nM
T1 construct: made in house
Experimental: Biotinylation of VCB. The VCB complex was mixed with EZ-link NHS-PEG4-biotin (Thermo Scientific) in a 1:1 molar ratio and incubated at room temperature for 1 h. The reaction was quenched using 1 M Tris-HCl, pH 7.5, and unreacted NHS-biotin was removed with a PD-10 MiniTrap desalting column (GE Healthcare) equilibrated with 20 mM HEPES, pH 7.5, 150 mM NaCl and 1 mM DTT.
AlphaLISA assay. All assays were performed at room temperature in 384-well plates with a final assay volume of 25 µL per well; plates were sealed with transparent film between addition of reagents. All reagents were prepared as 5× stocks diluted in 50 mM HEPES, pH 7.5, 100 mM NaCl, 0.1% (w/v) bovine serum albumin and 0.02% (w/v) 3-[(cholamidopropyl)dimethylammonio]-1-propanesulfonate (CHAPS). Biotinylated VCB (20 nM final) and His6-VCB (20 nM final) were incubated with a range of Homo-PROTAC concentrations (0.5–200 nM; three-in-five serial dilution) for 1 h. Anti-His acceptor beads (PerkinElmer, 10 µg ml^−1 final) were added and plates were incubated for another hour. Streptavidin-coated donor beads (PerkinElmer, 10 µg ml^−1 final) were added and plates were incubated for a final 1 h. Plates were read on a PHERAstar FS (BMG Labtech) using an optic module with an excitation wavelength of 680 nm and emission wavelength of 615 nm. Intensity values were plotted against PROTAC concentration on a log10 scale.

T1 sequence (P40337 54-213): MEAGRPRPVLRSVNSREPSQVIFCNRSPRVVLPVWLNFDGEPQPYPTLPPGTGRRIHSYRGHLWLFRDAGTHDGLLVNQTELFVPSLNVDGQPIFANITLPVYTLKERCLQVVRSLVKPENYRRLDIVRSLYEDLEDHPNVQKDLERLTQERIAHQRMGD
T1 sequence (Q15369 17-112 partner limits assumed): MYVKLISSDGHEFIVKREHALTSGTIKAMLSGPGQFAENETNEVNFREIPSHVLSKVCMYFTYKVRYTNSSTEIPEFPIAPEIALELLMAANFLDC
T1 sequence (Q15370 1-104 partner limits assumed): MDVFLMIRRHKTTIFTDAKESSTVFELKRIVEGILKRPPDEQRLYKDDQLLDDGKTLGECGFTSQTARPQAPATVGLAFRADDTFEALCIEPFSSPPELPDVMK

ternary complex formation, AlphaLISA intensity [2] | Compound | average normalized ratio to DMSO, LRRC42 [1]
negligible levels of complex formation | Cc1ncsc1-c1ccc(CNC(=O)[C@@H]2C[C@@H](O)CN2C(=O)[C@@H](NC(=O)COCCOCCOCCOCCOCC(=O)N[C@H](C(=O)N2C[C@H](O)C[C@H]2C(=O)NCc2ccc(-c3scnc3C)cc2)C(C)(C)C)C(C)(C)C)cc1 [CM10, N ^1 ,N ^17-bis((S)-1-((2S,4R)-4-hydroxy-2-((4-(4-methylthiazol-5-yl)benzyl)carbamoyl)pyrrolidin-1-yl)-3,3-dimethyl-1-oxobutan-2-yl)-3,6,9,12,15-pentaoxaheptadecanediamide] | 0.64
negligible levels of complex formation | Cc1ncsc1-c1ccc(CNC(=O)[C@@H]2C[C@@H](O)CN2C(=O)[C@@H](NC(=O)COCCOCCOCCOCC(=O)N[C@H](C(=O)N2C[C@H](O)C[C@H]2C(=O)NCc2ccc(-c3scnc3C)cc2)C(C)(C)C)C(C)(C)C)cc1 [CM09, N ^1 ,N ^14-bis((S)-1-((2S,4R)-4-hydroxy-2-((4-(4-methylthiazol-5-yl)benzyl)carbamoyl)pyrrolidin-1-yl)-3,3-dimethyl-1-oxobutan-2-yl)-3,6,9,12-tetraoxatetradecanediamide] | 2.15
highest intensity signal | Cc1ncsc1-c1ccc(CNC(=O)[C@@H]2C[C@@H](O)CN2C(=O)[C@@H](NC(=O)COCCOCCOCCOCCOCCOCC(=O)N[C@H](C(=O)N2C[C@H](O)C[C@H]2C(=O)NCc2ccc(-c3scnc3C)cc2)C(C)(C)C)C(C)(C)C)cc1 [CM11, N ^1 ,N ^20-bis((S)-1-((2S,4R)-4-hydroxy-2-((4-(4-methylthiazol-5-yl)benzyl)carbamoyl)pyrrolidin-1-yl)-3,3-dimethyl-1-oxobutan-2-yl)-3,6,9,12,15,18-hexaoxaicosanediamide] | 0.60

— publication PMC5635026, “Homo-PROTACs: bivalent small-molecule dimerizers of the VHL E3 ubiquitin ligase to induce self-degradation” (Nature Communications, 2017)
